In brackets after ≈: the same amount, converted by molar mass. Several values for one entry are separate records, joined by “and”; a condition that tells them apart may be missing. Identical values can stand only once.
What was measured:
[1] = system: Mycobacterium tuberculosis; experiment: Antitubercular activity against Mycobacterium tuberculosis H37Rv ATCC 9360 assessed as bacterial growth inhibition incubated for 2 weeks by spot culture growth inhibition assay; format: functional; conditions: H37Rv ATCC 9360, 336 h
[2] = Inhibition of Mycobacterium tuberculosis MurE using UDPMurNAc-L-Ala-D-Glu as substrate incubated for 30 mins by phosphate release based colorimetric assay
[3] = Inhibition of recombinant Mycobacterium tuberculosis MurE expressed in Escherichia coli BL21(DE3) cells using UDP-MurNAc-dipeptide as substrate incubated for 30 mins by phosphate release based colorimetric assay; format: cell-based
[4] = system: Mycobacterium tuberculosis; experiment: Antitubercular activity against Mycobacterium tuberculosis H37Rv ATCC 27294 assessed as bacterial growth inhibition; format: functional
[5] = Selectivity index, ratio of IC50 for cytotoxicity against mouse RAW264.7 cells to MIC for antitubercular activity against Mycobacterium tuberculosis H37Rv ATCC 27294; format: toxicity, cell-based; conditions: for selectivity ratio: RAW264.7 cells, read-out: Selectivity Index
[6] = system: RAW264.7; experiment: Cytotoxicity against mouse RAW264.7 cells assessed as cell growth inhibition incubated for 48 hrs by resazurin staining based fluorometric analysis; format: functional; conditions: RAW264.7, 48 h
[7] = Inhibition of Mycobacterium tuberculosis MurE expressed in Escherichia coli BL21(DE3) cells using UDP-MurNAc-dipeptide as substrate incubated for 30 mins by HPLC analysis
[8] = system: Mycobacterium tuberculosis; experiment: Antimycobacterial activity against Mycobacterium tuberculosis H37Rv ATCC 27294 assessed as inhibition of bacterial growth incubated for 2 weeks by spot culture growth inhibition assay; format: functional; conditions: H37Rv ATCC 27294, 336 h
[9] = Inhibition of recombinant Mycobacterium tuberculosis MurE expressed in Pseudomonas putida KT2442 using UDPMurNAc-L-Ala-D-Glu as substrate incubated for 30 mins by HPLC analysis
[10] = system: Mycobacterium tuberculosis; experiment: Inhibition of Mycobacterium tuberculosis MurE at 100 uM relative to control
[11] = system: Mycobacterium tuberculosis; experiment: Inhibition of Mycobacterium tuberculosis MurC at 100 uM relative to control
[12] = system: Mycobacterium tuberculosis; experiment: Inhibition of Mycobacterium tuberculosis MurD at 100 uM relative to control
[13] = system: Mycobacterium tuberculosis; experiment: Inhibition of Mycobacterium tuberculosis MurF at 100 uM relative to control
[14] = system: RAW264.7; experiment: Cytotoxicity against mouse RAW264.7 cells assessed as cell growth inhibition; format: functional, cell-based
[15] = system: Mycobacterium tuberculosis; experiment: (§1) Inhibition of N-terminal His-tagged Mycobacterium tuberculosis MurA expressed in Escherichia coli BL21 (DE3) cells using UDP-GlcNAc as initial substrate pretreated with compound for 15 mins followed by substrate addition measured after 30 mins in presence of ATP by phosphate release based assay relative to control; conditions: time 45.0 min
[16] = system: Mycobacterium tuberculosis; experiment: as §1, with “of” for “of N-terminal His-tagged”, “MBP tagged MurD” for “MurA”, “Rosetta-gami” for “BL21”; conditions: time 45.0 min
[17] = system: Mycobacterium tuberculosis; experiment: as §1, with “MurB” for “MurA”; conditions: time 45.0 min
[18] = system: Mycobacterium tuberculosis; experiment: as §1, with “MurC” for “MurA”; conditions: time 45.0 min
[19] = system: Mycobacterium tuberculosis; experiment: Antitubercular activity against Mycobacterium tuberculosis H37Rv ATCC 27294 assessed as bacterial growth inhibition incubated for 6 days by MTT assay; format: functional; conditions: H37Rv ATCC 27294, 144 h, time 6 day
[20] = as §1, with “of” for “of N-terminal His-tagged”, “MBP tagged MurF” for “MurA”, “Rosetta-gami” for “BL21”
[21] = as §1, with “MurE” for “MurA”
[22] = Inhibition of Mycobacterium tuberculosis MurE expressed in Escherichia coli BL21(DE3) cells by phosphate release based colorimetric assay

## C=CC(C)(C)C1C(=O)CC(c2ccccc2)OC1OC (configuration not stated)
[1]
  MIC: 75 µg/mL (≈ 273 µM)
[2]
  IC50: 320 µM

## CCCCCCCCCCC/C=C/C1CC(=O)c2ccccc2N1C (configuration not stated)
[3]
  IC50: 52 µM
[4]
  MIC: 58.9 µM (≈ 20.1 µg/mL)
[5]
  selectivity ratio: 1
[6]
  IC50: 24 µg/mL (≈ 70.3 µM)
[7]
  IC50: 140 µM

## Oc1ccc(I)c2c1C(Cc1cccc3c1OCO3)NCC2 (configuration not stated)
[8]
  MIC: 71 µM (≈ 29.1 µg/mL)
[9]
  IC50: < 111 µM

## NNC(=O)c1ccncc1 [ISONIAZID]
[3]
  IC50: > 1000 µM
[9]
  IC50: > 1000 µM

## CC(=O)N[C@H]1[C@H](OCc2cn(C[C@@H]3O[C@H](n4ccc(=O)[nH]c4=O)[C@@H](O)[C@H]3O)nn2)O[C@H](Cn2cc(CO[C@@H]3O[C@H](CO)[C@@H](O)[C@H](O)[C@H]3NC(C)=O)nn2)[C@@H](O)[C@@H]1O
[10]
  inhibition: 12.5%
[11]
  inhibition: 1%
[12]
  inhibition: 5.2%
[13]
  inhibition: 48.9%

## COc1c(O)c2c3c(c1OC)CCNC3Cc1cc3c(cc1-2)OCO3 (configuration not stated)
[8]
  MIC: 84 µM (≈ 28.7 µg/mL)
[9]
  IC50: 820 µM
[14]
  IC50: 352 µM

## COc1c(O)c2c3c(c1OC)CCN[C@H]3Cc1cc3c(cc1-2)OCO3 [listing 1 of 2 here]
[15]
  inhibition: 75%
[16]
  inhibition: 88%
[17]
  inhibition: > 100%
[18]
  inhibition: 66%

## Oc1ccc(Br)c2c1C(c1cccc3c1OCO3)NCC2 (configuration not stated)
[9]
  IC50: < 111 µM

## CCCCCCCCCC/C=C/C1CC(=O)c2ccccc2N1C (configuration not stated)
[3]
  IC50: 72 µM
[4]
  MIC: 30.7 µM (≈ 10.1 µg/mL)
[5]
  selectivity ratio: 1
[6]
  IC50: 24 µg/mL (≈ 73.3 µM)
[7]
  IC50: 187 µM

## COc1c(O)c2c3c(c1OC)CCN[C@H]3Cc1cc3c(cc1-2)OCO3 [listing 2 of 2 here]
[19]
  MIC: 64 µg/mL (≈ 187 µM)
[3]
  IC50: 67 µM and < 100 µM
[5]
  Selectivity Index: 0.97
[6]
  IC50: 62 µg/mL (≈ 182 µM)

## CCCCCCCC/C=C\CCCCC1CC(=O)c2ccccc2N1C (configuration not stated)
[3]
  IC50: 36 µM
[4]
  MIC: 28.3 µM (≈ 10.1 µg/mL)
[5]
  selectivity ratio: 1
[6]
  IC50: 24 µg/mL (≈ 67.5 µM)
[7]
  IC50: 95 µM

## Oc1ccc(Br)c2c1C(Cc1cccc3c1OCO3)NCC2 (configuration not stated)
[9]
  IC50: < 111 µM

## CCCCCCCC/C=C/C1CC(=O)c2ccccc2N1C (configuration not stated)
[3]
  IC50: 70 µM
[4]
  MIC: 84 µM (≈ 25.2 µg/mL)
[5]
  selectivity ratio: 1
[6]
  IC50: 24 µg/mL (≈ 80.1 µM)
[7]
  IC50: 207 µM

## CCCCCCCCC/C=C\CCCC1CC(=O)c2ccccc2N1C (configuration not stated)
[15]
  inhibition: > 100%
[3]
  IC50: 52 µM
[4]
  MIC: 70.7 µM (≈ 25.1 µg/mL)
[5]
  selectivity ratio: 1
[6]
  IC50: 24 µg/mL (≈ 67.5 µM)
[20]
  IC50: 25.8 µM
[16]
  inhibition: 85%
[17]
  inhibition: > 100%
[18]
  inhibition: 73%
[7]
  IC50: 159 µM
[21]
  IC50: 17 µM

## CCCCCCCCCC#CCC1CC(=O)c2ccccc2N1CCCC (configuration not stated)
[22]
  IC50: 235 µM

## CC(=O)N[C@H]1[C@H](OCc2cnnn2C[C@H]2O[C@@H](n3ccc(=O)[nH]c3=O)[C@H](O)[C@@H]2O)O[C@H](Cn2cc(C(N)=O)nn2)[C@@H](O)[C@@H]1O
[10]
  inhibition: 6.1%
[11]
  inhibition: 12.1%
[12]
  inhibition: 23%
[13]
  inhibition: 41.8%

## COc1ccc(Br)c2c1C(c1cccc3c1OCO3)NCC2 (configuration not stated)
[8]
  MIC: 106 µM (≈ 38.4 µg/mL)
[9]
  IC50: 165 µM

## COc1c(O)c2c3c(c1OC)CCN[C@H]3Cc1cc3c(cc1-2)OCO3.Cl
[19]
  MIC: 4 µg/mL
[3]
  IC50: 57 µM
[5]
  Selectivity Index: 12
[6]
  IC50: 47 µg/mL
[20]
  IC50: 45.4 µM
[21]
  IC50: 61.6 µM

## COC(=O)N1CCc2c(OC)c(OC)c(O)c3c2[C@@H]1Cc1cc2c(cc1-3)OCO2
[19]
  MIC: 128 µg/mL (≈ 320 µM)
[3]
  IC50: 75 µM and < 100 µM
[5]
  selectivity ratio: 0.52
[6]
  IC50: 67 µg/mL (≈ 168 µM)

## CCCCCCCCCCCC#CCC1CC(=O)c2ccccc2N1CCCC (configuration not stated)
[22]
  IC50: 200 µM

— ChEMBL document CHEMBL5096189, “The Mur Enzymes Chink in the Armour of Mycobacterium tuberculosis cell wall” (Eur J Med Chem, 2021)
